In US8796023B2, “Peptide nanostructures containing end-capping modified peptides and methods of generating and using the same” (Ramot at Tel-Aviv University Ltd., priority 2004, dated 2014):
Like-named read-outs stand apart in the source and are kept apart here. Residues, ends and D or L forms follow the SMILES beside them. *: point of attachment. Fmoc = O=C(OCC1c2ccccc2-c2ccccc21)*; Cbz = O=C(OCc1ccccc1)*; Boc = CC(C)(C)OC(=O)*

Key:
[1] = same conditions, per WO 2004/052773; cited from earlier work
[2] = Atomic force microscope (AFM) imaging of the peptide nanostructures; format: physicochemical; conditions: tapping mode, deposited on mica
Method: Atomic Force Microscope (AFM) imaging—The peptide sample solution was diluted again in ddH2O to a concentration of 1 mg/ml. Then the peptide solution was placed on mica grade and dried in vacuum. Dried sample was analyzed using Molecular Imaging PicoSPM II system in tapping mode.

[3] = Fourier transform infrared spectroscopy of the self-assembled structures; format: physicochemical; conditions: FT-IR amide-I region
Method: Fourier Transform Infrared Spectroscopy—Infrared spectra were recorded using a Nicolet Nexus 470 FT-IR spectrometer with a deuterated triglycine sulfate (DTGS) detector. Peptide solution taken from the abovementioned SEM assays were deposited on a CaF2 plate and dried under reduced pressure. The peptide deposits were resuspended with D2O and subsequently dried to form thin films. The resuspension procedure was repeated twice to ensure maximal hydrogen to deuterium exchange. The measurements […] a 4 cm^−1 resolution and averaging of 2000 scans. The transmittance minimal values were determined by the OMNIC analysis program (Nicolet).

[4] = Self-assembly of end-capping modified diphenylalanine peptides, viewed by SEM/TEM; format: physicochemical; conditions: for structures formed by self-assembly (morphology): HFIP stock diluted in ddH2O, SEM/TEM/AFM
Method: (§1) Materials—End capping modified diphenylalanine peptides, presented in Table 3 hereinbelow, were purchase from Bachem (Bubendorf, Switzerland). Fresh stock solutions of the peptides were prepared by dissolving the lyophilized form of the peptides in 1,1,1,3,3,3-hexafluoro-2-propanol (HFIP, Sigma) at a concentration of 100 mg/ml. To avoid any pre-aggregation, fresh stock solutions were prepared for each experiment. The cyclo-Phe-Phe peptide (Peptide 8) was dissolved in HFIP to a concentration of 25 mg/ml and was subjected to ultrasound until a clear solution was obtained. The peptides stock solutions were diluted into a final concentration of 2 mg/ml in ddH2O. The NH2-Phe-Phe-NH2 peptide (Peptide 3) was diluted into a final concentration of 10 mg/ml in ddH2O.
Scanning electron microscopy (SEM) —Immediately after dilution in ddH2O, peptide solution was allowed to dry at room temperature over glass cover slip and coated with gold. Scanning electron microscopy images were obtained using a JSM JEOL 6300 SEM operating at 5 kV.
Transmission Electron microscopy (TEM) —Samples were placed on a 200 mesh copper grid, covered by carbon stabilized formvar film. After 1 minute excess fluid was removed and the grid was thereafter negatively stained with 2% uranyl acetate in water. After 2 minutes, excess fluid was removed from the grid. The samples were viewed in JEOL 1200EX electron microscope operating at 80 kV.
High resolution transmission electron microscopy—Samples were viewed using a Philips Tecnai F20 Field Emission Gun electron microscope operating at 200 kV. EDX analysis was performed with EDAX detector.
High resolution scanning electron microscopy—HRSEM grids were viewed using a JSM-6700 field emission scanning electron microscope equipped with a cold field emission gun operating at 1 kV.

[5] = Dissolving the peptides for stock solutions; format: physicochemical; conditions: in water or in fluoroalcohols
Method: as §1

Row | Compound | molecular conformation of the self-assembled structures [3] | structures formed by self-assembly (morphology) [4] | further results
1 | NC(Cc1ccccc1)C(=O)NC(Cc1ccccc1)C(=O)O (stereo not drawn) [Peptide 1, NH2-Phe-Phe-COOH] (H-Phe-Phe-OH; configuration not given here) |  |  | structures formed by self-assembly (morphology) [1]: formation of nanotubes
2 | CC(=O)NC(Cc1ccccc1)C(=O)NC(Cc1ccccc1)C(N)=O (stereo not drawn) [Peptide 2, Ac-Phe-Phe-NH2] (Ac-Phe-Phe-NH2; configuration not given here) | β-sheet conformation | organized and regular tubular structures | height of nanostructures at the Z-range [2]: about 100 nm; diameters of the tubular structures ([4]; SEM, within minutes after dilution of peptide stock into aqueous solution): few microns to less than 100 nanometers
3 | CC(=O)NC(Cc1ccccc1)C(=O)NC(Cc1ccccc1)C(=O)O (stereo not drawn) [Peptide 4, Ac-Phe-Phe-COOH] (Ac-Phe-Phe-OH; configuration not given here) |  |  | dissolution [5]: did not dissolve
4 | CC(C)(C)OC(=O)NC(Cc1ccccc1)C(=O)NC(Cc1ccccc1)C(=O)O (stereo not drawn) [Peptide 5, Boc-Phe-Phe-COOH] (Boc-Phe-Phe-OH; configuration not given here) | α-helix conformation | highly ordered tubular structures | 
5 | O=C(NC(Cc1ccccc1)C(=O)NC(Cc1ccccc1)C(=O)O)OCC1c2ccccc2-c2ccccc21 (stereo not drawn) [Peptide 6, Fmoc-Phe-Phe-COOH] (Fmoc-Phe-Phe-OH; configuration not given here) |  | fibrillar structures | 
6 | cyclo-Phe-Phe [Peptide 8] | either an α-helix or a β-turn conformation | bundles of tubular structures | 

Continued, in another order:

Row | molecular conformation of the self-assembled structures [3] | structures formed by self-assembly (morphology) [4] | Compound | further results
7 | antiparallel β-sheet conformation | tubular structures | NC(=O)C(Cc1ccccc1)NC(=O)C(N)Cc1ccccc1 (stereo not drawn) [Peptide 3, NH2-Phe-Phe-NH2] (H-Phe-Phe-NH2; configuration not given here) | 
8 | antiparallel β-sheet conformation | fibrillar structures | O=C(NC(Cc1ccccc1)C(=O)NC(Cc1ccccc1)C(=O)O)OCc1ccccc1 (stereo not drawn) [Peptide 7, Cbz-Phe-Phe-COOH] (Cbz-Phe-Phe-OH; configuration not given here) | 
